Assay results reported in PMC12233266, “Loss of serine/threonine protein phosphatase 6 severely impairs sexual stage development in malaria parasite Plasmodium berghei” (PLOS Pathogens, 2025).

Target: T1, Ser/Thr protein phosphatase 6 (PbPP6) (Plasmodium berghei, UniProt A0A509AFY8)
T1 construct: gene PBANKA_0412100; full-length PbPP6 (308 aa), C-terminal His tag, expressed in Pichia GS115 (rPbPP6)
T1 sequence (A0A509AFY8 1-308): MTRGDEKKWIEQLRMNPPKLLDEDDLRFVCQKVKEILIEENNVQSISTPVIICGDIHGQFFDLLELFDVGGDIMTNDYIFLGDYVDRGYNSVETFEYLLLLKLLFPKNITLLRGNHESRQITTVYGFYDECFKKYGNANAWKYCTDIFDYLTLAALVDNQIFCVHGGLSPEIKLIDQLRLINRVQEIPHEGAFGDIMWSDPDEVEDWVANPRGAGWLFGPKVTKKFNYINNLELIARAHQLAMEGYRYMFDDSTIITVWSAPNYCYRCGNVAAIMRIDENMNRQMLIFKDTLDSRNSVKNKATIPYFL
Experiment: ProFluor Ser/Thr PPase fluorescence assay (R110 substrate) with purified recombinant enzyme, dose-response
Format: biochemical

C=C1[C@@H](O)[C@@H]2O[C@]3(CC[C@H](/C=C/[C@@H](C)[C@@H]4CC(C)=C[C@@]5(O[C@H](C[C@@](C)(O)C(=O)O)CC[C@H]5O)O4)O3)CC[C@H]2O[C@@H]1[C@@H](O)C[C@H](C)[C@H]1O[C@@]2(CCCCO2)CC[C@H]1C [OKA, okadaic acid]
IC50: 0.86 nM
